Experimental data as given in patent US8076112B2, “Fermentation processes” (priority 2006, dated 2011).

Tested on: Lactobacillus paracasei
Test: Effect of Lysozyme on Lactobacillus in fermentation medium (liquefied corn mash), bacterial plating and counting
Type: cell-based
Details: 0-100-300-1000 mg/L Lysozyme in corn mash pH 5.05, 32° C., 0, 24 and 48 hours (FIG. 4)
Protocol: Milled corn was liquefied in an aqueous slurry (pH 5.6) using 50 NU/g DS Bacterial Alpha-Amylase A by heating until a temperature of 85° C. (approx 20 minutes) was reached. Thereafter the slurry is cooked for another 60 minutes. A sample of the liquefied corn mash (CM) was pH-adjusted to 5.05 with H2SO4. After pH adjustment, the mash was split up into approximately 59 of CM and added to 36 15 mL plastic centrifuge tubes. Various amounts of L. paracasei were then added to give an initial cell count of about 1-3×10^6/mL. Different dosages (0-100-300-1000 mg/L) of Lysozyme (Sigma) were also added to each tube. The tubes were then thoroughly vortexed and placed in a rack in 32° C. water bath. Tubes were pulled after 0, 24, and 48 hours for bacterial plating and counting. No additional Lysozyme was added to any of the tubes after time zero.

Q: How did the “Antibacterial effect on Lactobacillus (growth inhibition)” value turn out when “Lysozyme: Lysozyme from hen egg white, cat # L-7651, purchased from Sigma” was run?
A: effective inhibiting growth of Lactobacillus paracasei
